Data published in EPA's CvTdb concentration-time database (doi:10.1093/toxsci/kfy020).

Key:
Experiment in all cases: concentration in plasma after dosing
[1] = test system: rat; settings: dosed: Bisphenol A, 0.6000000000 mg/kg, iv, male, Sprague-Dawley
[2] = test system: rat; settings: dosed: Bisphenol A, 0.6000000000 mg/kg, iv, male, Sprague-Dawley; remark: listed apart in the source
[3] = test system: rat; settings: male, Sprague-Dawley
[4] = test system: rat; settings: 8 h; dosed: Dimethenamid; 5.0000000000 mg/kg; oral; male; Sprague-Dawley
[5] = test system: rat; settings: dosed: Dimethenamid, 5.0000000000 mg/kg, oral, male, Sprague-Dawley
[6] = test system: rat; settings: dosed: Dimethenamid, 1.0000000000 mg/kg, iv, male, Sprague-Dawley
[7] = test system: rat; settings: dosed: Dimethenamid, 5.0000000000 mg/kg, oral, male, Sprague-Dawley; remark: listed apart in the source
[8] = test system: rat; settings: dosed: Dimethenamid, 1.0000000000 mg/kg, iv, male, Sprague-Dawley; remark: listed apart in the source
[9] = test system: rat; settings: dosed: Etoxazole, 2.0000000000 mg/kg, oral, male, Sprague-Dawley
[10] = test system: rat; settings: dosed: Etoxazole, 2.0000000000 mg/kg, oral, male, Sprague-Dawley; remark: listed apart in the source
[11] = test system: rat; settings: dosed: Etoxazole, 0.4000000000 mg/kg, iv, male, Sprague-Dawley
[12] = test system: rat; settings: dosed: Etoxazole, 0.4000000000 mg/kg, iv, male, Sprague-Dawley; remark: listed apart in the source
[13] = test system: rat; settings: dosed: Etoxazole, 2.0000000000 mg/kg, oral, male, Sprague-Dawley; remark: listed apart in the source
[14] = test system: rat; settings: dosed: Etoxazole, 2.0000000000 mg/kg, oral, male, Sprague-Dawley; remark: listed apart in the source
[15] = test system: rat; settings: dosed: Etoxazole, 0.4000000000 mg/kg, iv, male, Sprague-Dawley; remark: listed apart in the source
[16] = test system: rat; settings: dosed: Permethrin, 5.0000000000 mg/kg, oral, male, Sprague-Dawley
[17] = test system: rat; settings: dosed: Permethrin, 5.0000000000 mg/kg, oral, male, Sprague-Dawley; remark: listed apart in the source
[18] = test system: rat; settings: dosed: Permethrin, 1.0000000000 mg/kg, iv, male, Sprague-Dawley
[19] = test system: rat; settings: dosed: Permethrin, 5.0000000000 mg/kg, oral, male, Sprague-Dawley; remark: listed apart in the source
[20] = test system: rat; settings: dosed: Permethrin, 5.0000000000 mg/kg, oral, male, Sprague-Dawley; remark: listed apart in the source
[21] = test system: rat; settings: dosed: Permethrin, 1.0000000000 mg/kg, iv, male, Sprague-Dawley; remark: listed apart in the source
[22] = test system: rat; settings: dosed: Permethrin, 5.0000000000 mg/kg, oral, male, Sprague-Dawley; remark: listed apart in the source

CC(C)(c1ccc(O)cc1)c1ccc(O)cc1 [Bisphenol A]
concentration in plasma [ng/mL]
Settings | 0.5 h | 1 h | 5 min | 10 min
[1] | 60.5 | 34.5 | 299 | 189
[2] | 94.3 | 30.7 | 310 | 151

[3], dosed: Bisphenol A, 0.6000000000 mg/kg, iv
Settings | concentration in plasma [ng/mL]
0.5 h | 85.6
1 h | 29.2
5 min | 392
10 min | 302

COCC(C)N(C(=O)CCl)c1c(C)csc1C (stereo unspecified) [Dimethenamid]
Settings | concentration in plasma [ng/mL]
[4] | 287

[3], dosed: Dimethenamid
Settings | concentration in plasma [ng/mL]
0.25 h, 5.0000000000 mg/kg, oral | 5.3
0.5 h, 1.0000000000 mg/kg, iv | 19.3
0.5 h, 5.0000000000 mg/kg, oral | 2
1 h, 1.0000000000 mg/kg, iv | 7
1 h, 5.0000000000 mg/kg, oral | 1.3
2 h, 1.0000000000 mg/kg, iv | 1.4
2 h, 5.0000000000 mg/kg, oral | 1.9
4 h, 1.0000000000 mg/kg, iv | 0.8
4 h, 5.0000000000 mg/kg, oral | 1.2
5 min, 1.0000000000 mg/kg, iv | 115
8 h, 1.0000000000 mg/kg, iv | 0.3
8 h, 5.0000000000 mg/kg, oral | 0.5
10 min, 1.0000000000 mg/kg, iv | 60.7
12 h, 5.0000000000 mg/kg, oral | 0.3
24 h, 5.0000000000 mg/kg, oral | 0.3
48 h, 5.0000000000 mg/kg, oral | 0.3
72 h, 5.0000000000 mg/kg, oral | 0.5

concentration in plasma [ng/mL]
Settings | [5] | [6] | [7] | [8]
0.25 h | 1.8 | – | 0.6 | –
0.5 h | 1.4 | 14.9 | 0.5 | 20.9
1 h | 0.6 | 6.2 | – | 7.4
2 h | 0.7 | 1.9 | 0.6 | 2.1
4 h | 1 | 0.6 | 0.6 | 0.8
5 min | – | 91.9 | – | 193
8 h | 0.5 | – | 0.2 | –
10 min | – | 38.1 | – | 110
24 h | 0.2 | – | – | –
48 h | 0.3 | – | – | –
72 h | 0.3 | – | – | –

CCOc1cc(C(C)(C)C)ccc1C1COC(c2c(F)cccc2F)=N1 (stereo unspecified) [Etoxazole]
concentration in plasma [ng/mL]
Settings | [9] | [10] | [11] | [12] | [13] | [14] | [15]
0.25 h | 15.1 | 15.8 | – | – | 14.6 | 9.12 | –
0.5 h | 22.4 | 18.5 | 60 | 43.6 | 23 | 16.8 | 20.5
1 h | 29.7 | 23.8 | 18.9 | 15.7 | 33.7 | 25.3 | 7.3
2 h | 31.5 | 7.62 | 4.7 | 4.19 | 24.3 | 31 | 2.78
4 h | 13.6 | 2.16 | 0.86 | 1.89 | 11.9 | 9.37 | 1.69
5 min | – | – | 142 | 126 | – | – | 78.2
8 h | 5.34 | 4.85 | 0.54 | 0.28 | 10.3 | – | 0.69
10 min | – | – | 66.8 | 72.5 | – | – | 50.2
12 h | 1 | 1.6 | – | – | 1.45 | – | 0.56
24 h | 0.46 | 0.18 | 0.36 | – | 0.53 | – | 0.3
48 h | 0.2 | – | – | – | 0.12 | – | 0.14
72 h | 0.16 | – | – | – | 0.13 | – | –

[3], dosed: Etoxazole
Settings | concentration in plasma [ng/mL]
0.25 h, 2.0000000000 mg/kg, oral | 36
0.5 h, 0.4000000000 mg/kg, iv | 31.1
0.5 h, 2.0000000000 mg/kg, oral | 41.2
1 h, 0.4000000000 mg/kg, iv | 14
1 h, 2.0000000000 mg/kg, oral | 49.5
2 h, 0.4000000000 mg/kg, iv | 3.62
2 h, 2.0000000000 mg/kg, oral | 23.7
4 h, 0.4000000000 mg/kg, iv | 1.53
4 h, 2.0000000000 mg/kg, oral | 8.72
5 min, 0.4000000000 mg/kg, iv | 145
8 h, 0.4000000000 mg/kg, iv | 0.14
8 h, 2.0000000000 mg/kg, oral | 11.7
10 min, 0.4000000000 mg/kg, iv | 86.3
12 h, 2.0000000000 mg/kg, oral | 1.84
24 h, 2.0000000000 mg/kg, oral | 0.61
48 h, 2.0000000000 mg/kg, oral | 0.15
72 h, 2.0000000000 mg/kg, oral | 0.11

CC1(C)C(C=C(Cl)Cl)C1C(=O)OCc1cccc(Oc2ccccc2)c1 (stereo unspecified) [Permethrin]
concentration in plasma [ng/mL]
Settings | 0.25 h | 0.5 h | 1 h | 2 h | 4 h | 8 h | 10 min | 12 h
[16] | – | 37 | 54.2 | 62.2 | 48.5 | 12.3 | 10.1 | 1.5
[17] | – | 7.1 | 10.5 | 14.9 | 16 | 7.8 | – | 3.3
[18] | – | – | – | – | – | – | 3 | 2.9
[19] | – | 8.1 | 15.2 | 15.9 | – | – | – | –
[20] | 21.3 | 15.7 | 18.3 | 21.5 | 28.4 | 15.1 | – | –
[21] | – | – | 9.5 | – | 2.1 | – | – | –
[22] | – | 33.4 | 87.2 | 40.8 | 27.2 | – | – | –

concentration in plasma [ng/mL], [3], dosed: Permethrin
Settings | 0.5 h | 1 h | 2 h | 4 h | 8 h | 10 min | 12 h | 48 h
1.0000000000 mg/kg, iv | – | 6.7 | – | – | – | 15.9 | – | –
5.0000000000 mg/kg, oral | 44.4 | 64.2 | 71 | 53.2 | 26.1 | 15 | 8.4 | 5.2
